Data reported in patent EP1081131A1 (priority 1998, dated 1999).

Columns and labels:
Format in all cases: cell-based, mycobacteria of tuberculosis
Resistant to rifamycin = experiment: Bacteriostatic activity on patient strains (Table 4); conditions: taken from patients, Central SRI of Tuberculosis RAMS 1997
[1] = tested on: Semiresistant (resistant to streptomycin, rifamycin and isoniazid); experiment: as above; conditions: taken from patients, Central SRI of Tuberculosis RAMS 1997
[2] = tested on: Resistant to streptomycin; experiment: as above; conditions: taken from patients, Central SRI of Tuberculosis RAMS 1997
Resistant to isoniazid = experiment: as above; conditions: taken from patients, Central SRI of Tuberculosis RAMS 1997
[3] = tested on: Strain resistant to isoniazid; conditions: taken from patients, Sverdlovsk Regional SRI of Phthisiopulmonology 1998
[4] = tested on: Strain resistant to streptomycin and rifamycin; conditions: taken from patients, Sverdlovsk Regional SRI of Phthisiopulmonology 1998

Structure (SMILES)	Inhibiting level (Resistant to rifamycin) [µg/mL]	Inhibiting level [1] [µg/mL]	Inhibiting level [2] [µg/mL]	Inhibiting level (Resistant to isoniazid) [µg/mL]	Inhibiting level [3] [µg/mL]	Inhibiting level [4] [µg/mL]
O=C(NN=Cc1ccccc1OCCOCCOc1ccccc1C=NNC(=O)c1ccncc1)c1ccncc1 [1,5-Bis(2-isonicotinoyl hydrazonomethylphenoxy)-3-oxapentane]	0.20	1.57	1.56	18.80	–	–
[H]/N=C(/N)N[C@H]1[C@H](O)[C@@H](O)[C@H](O[C@@H]2O[C@@H](C)[C@](O)(C=O)[C@H]2O[C@@H]2O[C@@H](CO)[C@H](O)[C@@H](O)[C@@H]2NC)[C@@H](N/C(N)=N\[H])[C@@H]1O [Streptomycin, reference compound]	–	–	–	–	>50.0	10.0
O=C(NN=Cc1c(OCCOc2ccc3ccccc3c2C=NNC(=O)c2ccccc2)ccc2ccccc12)c1ccccc1 [1,2-Bis[2(benzoyl hydrazonomethylnaphthoxy-2)]-ethane]	–	–	–	–	5.0	0.4
O=Cc1ccc(Cl)cc1OCCOc1cc(Cl)ccc1C=O [1,2-Bis(2-formyl-5-chlorphenoxy)-ethane]	–	–	–	–	5.0	0.4
COc1cc(C=NNC(=O)c2ccccc2)ccc1OCCOc1ccc(C=NNC(=O)c2ccccc2)cc1OC [1,2-Bis(2-methoxy-4-benzoyl hydrazonomethylphenoxy)-ethane]	–	–	–	–	>5.0	0.8
CO[C@H]1/C=C/O[C@@]2(C)Oc3c(C)c(O)c4c(O)c(cc(O)c4c3C2=O)NC(=O)/C(C)=C\C=C\[C@H](C)[C@H](O)[C@@H](C)[C@@H](O)[C@@H](C)[C@H](OC(C)=O)[C@@H]1C [Rifamycin, reference compound]	–	–	–	–	–	20.0
NNC(=O)c1ccncc1 [Isoniazid, hydrazide of isonicotinic acid, reference compound]	0.29	2.125	0.29	>100	5.0	0.1
O=C(NN=Cc1ccccc1OCCCCOCCCCOc1ccccc1C=NNC(=O)c1cccnc1)c1cccnc1 [1,9-Bis(2-nicotinoyl hydrazonomethylphenoxy)-5-oxanonon]	–	–	–	–	>5.0	0.4
